For assay [1], the system named is HAP1 MTAP-deleted cell line. Kind of assay: SDMA in-cell western assay, HAP1 MTAP-deleted. Format: cell-based. As to conditions: for IC50: Homo sapiens, HAP1, SDMA in-cell western, HAP1 MTAP-deleted, read-out: HAP1 MTAP deleted IC50; for MTAP intact/deleted ratio: IC50 ratio HAP1 MTAP-intact / HAP1 MTAP-deleted, SDMA in-cell western. In outline:
(§1)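 IC50 values come from SDMA signal quantified by in-cell western in two HAP1 lines, one with native MTAP levels and one lacking MTAP.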

Assay [2] addresses T1, PRMT5 (Homo sapiens, UniProt O14744).
T1 construct: purchased Viva (custom protein)
Kind of assay: PRMT5 biochemical IC50 assay with MTA as cofactor. As to conditions: PRMT5, MTA as cofactor; read-out: MTA IC50.

The test system of assay [3] is HAP1 MTAP-deleted cell line. Kind of assay: Viability assay, MTAP-deleted cell line. The class given is cell-based. As to conditions: Homo sapiens, HAP1, viability assay, HAP1 MTAP-deleted; read-out: HAP1 MTAP deleted viability. The text has this:
Table 1 additionally indicates IC50 values in a viability assay for the MTAP-deleted cell line (column 10), indicating the effect of treatment with compound on cell survival.

Assay [4] concerns HAP1 MTAP-intact cell line. Kind of assay: SDMA in-cell western assay, HAP1 MTAP-intact. Conditions: Homo sapiens, HAP1, SDMA in-cell western, HAP1 MTAP-intact; read-out: MTAP HAP1 intact IC50. Format: cell-based. In short, it runs like this: as §1
Assay [5] deals with T1, PRMT5. Kind of assay: PRMT5 biochemical IC50 assay with no cofactor. Conditions: PRMT5, no cofactor; read-out: No Cofactor/rel IC50. The text has this:
Table 1 indicates IC50 values (μM) against PRMT5 for exemplary compounds in the presence of SAM as cofactor, with no cofactor, and with MTA as cofactor, respectively (columns 4-6). […] Ki values can be calculated from the IC50 values as described in the Examples section. As detailed in the Examples section, for the assay performed in the presence of SAM, IC50=Ki×1.5 (Ki=IC50/1.5).

Assay [6] deals with T1, PRMT5. Nature of the assay: PRMT5 biochemical IC50 assay with SAM as cofactor. As to conditions: PRMT5, SAM as cofactor; read-out: SAM IC50.

SMILES strings stand for the structures. A value given as a limit tells only on which side of the number the result lay.

T1 sequence (O14744 whole entry): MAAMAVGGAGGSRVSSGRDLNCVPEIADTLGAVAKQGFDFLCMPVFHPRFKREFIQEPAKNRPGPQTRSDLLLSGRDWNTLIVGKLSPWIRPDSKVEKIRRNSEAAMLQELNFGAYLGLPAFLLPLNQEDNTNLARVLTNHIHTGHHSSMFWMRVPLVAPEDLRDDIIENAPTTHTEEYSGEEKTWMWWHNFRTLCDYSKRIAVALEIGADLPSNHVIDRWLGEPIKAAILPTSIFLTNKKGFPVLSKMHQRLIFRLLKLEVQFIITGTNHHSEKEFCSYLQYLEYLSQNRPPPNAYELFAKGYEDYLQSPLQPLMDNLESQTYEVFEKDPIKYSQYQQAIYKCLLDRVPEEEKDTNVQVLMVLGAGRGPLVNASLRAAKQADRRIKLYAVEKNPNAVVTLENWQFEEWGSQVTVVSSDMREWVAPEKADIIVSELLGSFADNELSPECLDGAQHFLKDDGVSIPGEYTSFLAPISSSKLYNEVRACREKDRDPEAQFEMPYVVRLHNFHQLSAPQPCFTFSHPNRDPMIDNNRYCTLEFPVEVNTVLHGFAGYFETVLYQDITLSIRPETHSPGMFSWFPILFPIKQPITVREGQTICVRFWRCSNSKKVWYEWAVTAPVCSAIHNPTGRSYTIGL
T1 sequence (Q9BQA1 whole entry partner): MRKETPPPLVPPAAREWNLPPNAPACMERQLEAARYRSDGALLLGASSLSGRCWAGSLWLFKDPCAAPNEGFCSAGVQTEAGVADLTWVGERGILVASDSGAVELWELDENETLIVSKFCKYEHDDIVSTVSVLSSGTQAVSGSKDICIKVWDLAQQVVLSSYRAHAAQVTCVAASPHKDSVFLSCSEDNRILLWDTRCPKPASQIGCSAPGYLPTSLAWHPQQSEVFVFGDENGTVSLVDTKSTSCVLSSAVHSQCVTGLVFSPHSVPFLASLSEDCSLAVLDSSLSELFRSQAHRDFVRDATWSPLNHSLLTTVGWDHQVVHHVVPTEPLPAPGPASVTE

As for `C[C@H]1CC[C@H](c2ccc3[nH]ncc3n2)N(C(=O)C(=O)Nc2cncc(C(N)=O)c2)C1` (single isomer, unassigned) [Compound 778], the IC50 in assay [1] is below 0.1 µM; in assay [2], below 0.05 µM; in assay [3] it was 1 to 10 µM; in assay [4], above 1 µM; in assay [5], below 0.05 µM; in assay [6], 0.05 to 0.5 µM. The MTAP intact/deleted ratio result in assay [1] is reported as “A (an IC50 ratio greater than or equal to 10 fold)”.

With `Cc1cc(NC(=O)C(=O)N2C[C@@H](C)CC[C@@H]2c2ccc3[nH]ncc3n2)cnc1N` (single isomer, unassigned) [Compound 780], the IC50 is 0.1 to 1 µM in assay [1]; above 0.5 µM in assay [2]; above 10 µM in assay [3]; above 1 µM in assay [4]; above 0.5 µM in assay [5]; above 0.5 µM in assay [6]. In assay [1], the MTAP intact/deleted ratio result is “A (an IC50 ratio greater than or equal to 10 fold)”.

In the case of `Cc1cc(NC(=O)C(=O)N2C[C@H](C)CC[C@H]2c2ccn(-c3cc[nH]n3)n2)cnc1N` (single isomer, unassigned) [Compound 782], the IC50 is below 0.1 µM in assay [1]; below 0.05 µM in assay [2]; below 1 µM in assay [3]; 0.1 to 1 µM in assay [4]; below 0.05 µM in assay [5]; below 0.05 µM in assay [6]. Besides, the MTAP intact/deleted ratio entry in assay [1] is “A (an IC50 ratio greater than or equal to 10 fold)”.

With `C[C@@H]1CC[C@@H](c2ccc(-c3nccs3)cc2)N(C(=O)C(=O)Nc2cncc(C(N)=O)c2)C1` (single isomer, unassigned) [Compound 783], the IC50 is below 0.1 µM in assay [1]; below 0.05 µM in assay [2]; 1 to 10 µM in assay [3]; above 1 µM in assay [4]; 0.05 to 0.5 µM in assay [5]; 0.05 to 0.5 µM in assay [6]. Besides, the MTAP intact/deleted ratio entry in assay [1] was “A (an IC50 ratio greater than or equal to 10 fold)”.

With `CCc1cc(NC(=O)C(=O)N2C[C@@H](C)CC[C@@H]2c2ccc(C)nc2)cnc1N` (single isomer, unassigned) [Compound 784], the IC50 in assay [1] is below 0.1 µM; in assay [2], below 0.05 µM; in assay [3], below 1 µM; in assay [4], above 1 µM; in assay [5] it was below 0.05 µM; in assay [6], 0.05 to 0.5 µM. In addition, the MTAP intact/deleted ratio entry in assay [1] is recorded as “A (an IC50 ratio greater than or equal to 10 fold)”.

For the compound `Cc1cc(NC(=O)C(=O)N2C[C@H](C)CC[C@H]2c2cccc3[nH]ncc23)cnc1N` (single isomer, unassigned) [Compound 785], the IC50 in assay [1] is below 0.1 µM; in assay [2] it was below 0.05 µM; in assay [3] it was below 1 µM; in assay [4], 0.1 to 1 µM; in assay [5], below 0.05 µM; in assay [6] it was 0.05 to 0.5 µM. Also, in assay [1], the MTAP intact/deleted ratio entry is on record as “A (an IC50 ratio greater than or equal to 10 fold)”.

With `Cc1cc(NC(=O)C(=O)N2C[C@@H](C)C(F)(F)C[C@@H]2c2ccc(F)cc2)cnc1N` (single isomer, unassigned) [Compound 786], the IC50 in assay [1] is below 0.1 µM; in assay [2], below 0.05 µM; in assay [3], below 1 µM; in assay [4], 0.1 to 1 µM; in assay [5], below 0.05 µM; in assay [6], 0.05 to 0.5 µM. Besides, in assay [1], the MTAP intact/deleted ratio result is listed as “A (an IC50 ratio greater than or equal to 10 fold)”.

For the compound `C[C@@H]1CC[C@@H](c2ccc3[nH]ncc3n2)N(C(=O)C(=O)Nc2cncc(C(N)=O)c2)C1` (single isomer, unassigned) [Compound 787], the IC50 is above 1 µM in assay [1]; above 0.5 µM in assay [2]; above 10 µM in assay [3]; above 1 µM in assay [4]; above 0.5 µM in assay [5]; above 0.5 µM in assay [6]. In assay [1], the MTAP intact/deleted ratio entry is on record as “C (an IC50 ratio of less than 3 fold)”.

In the case of `Cc1cc(NC(=O)C(=O)N2C[C@H](C)CC[C@H]2c2ccc3[nH]ncc3n2)cnc1N` (single isomer, unassigned) [Compound 788], the IC50 was below 0.1 µM in assay [1]; below 0.05 µM in assay [2]; below 1 µM in assay [3]; 0.1 to 1 µM in assay [4]; below 0.05 µM in assay [5]; 0.05 to 0.5 µM in assay [6]. Also, in assay [1], the MTAP intact/deleted ratio result is recorded as “A (an IC50 ratio greater than or equal to 10 fold)”.

As for `Cc1cc(NC(=O)C(=O)N2C[C@@H](C)CC[C@@H]2c2ccn(-c3cc[nH]n3)n2)cnc1N` (single isomer, unassigned) [Compound 789], the IC50 in assay [1] is above 1 µM; in assay [2] it was above 0.5 µM; in assay [3], above 10 µM; in assay [4] it was above 1 µM; in assay [5], above 0.5 µM; in assay [6] it was above 0.5 µM. Moreover, in assay [1], the MTAP intact/deleted ratio result is on record as “B (an IC50 ratio greater than or equal to 3 fold but lower than 10 fold)”.

For the compound `Cc1cc(NC(=O)C(=O)N2C[C@@H](C)CC[C@@H]2c2cccc3[nH]ncc23)cnc1N` (single isomer, unassigned) [Compound 790], the IC50 in assay [1] was 0.1 to 1 µM; in assay [2], above 0.5 µM; in assay [3], above 10 µM; in assay [4], above 1 µM; in assay [5], above 0.5 µM; in assay [6] it was above 0.5 µM. In addition, the MTAP intact/deleted ratio result in assay [1] is “A (an IC50 ratio greater than or equal to 10 fold)”.

For the compound `C[C@@H]1CC[C@@H](c2ccc(C(N)=O)s2)N(C(=O)C(=O)Nc2cncc(C(N)=O)c2)C1` (single isomer, unassigned) [Compound 792], the IC50 is below 0.1 µM in assay [1]; below 0.05 µM in assay [2]; 1 to 10 µM in assay [3]; above 1 µM in assay [4]; below 0.05 µM in assay [5]; 0.05 to 0.5 µM in assay [6]. Also, the MTAP intact/deleted ratio result in assay [1] is “A (an IC50 ratio greater than or equal to 10 fold)”.

Turning to `COc1ncc(NC(=O)C(=O)N2C[C@H](C)CC[C@H]2c2ccc3[nH]cnc3c2)cc1C(N)=O` (single isomer, unassigned) [Compound 794], the IC50 in assay [1] was below 0.1 µM; in assay [2] it was below 0.05 µM; in assay [3], below 1 µM; in assay [4] it was above 1 µM; in assay [5], below 0.05 µM; in assay [6] it was 0.05 to 0.5 µM. Moreover, the MTAP intact/deleted ratio result in assay [1] was “A (an IC50 ratio greater than or equal to 10 fold)”.

For `C[C@@]1(F)CC[C@H](c2ccccc2)N(C(=O)C(=O)Nc2cncc(C(N)=O)c2)C1` (single isomer, unassigned) [Compound 795, 5-(2-(5-fluoro-5-methyl-2-phenylpiperidin-1-yl)-2-oxoacetamido)nicotinamide], the IC50 was below 0.1 µM in assay [1]; below 0.05 µM in assay [2]; 1 to 10 µM in assay [3]; above 1 µM in assay [4]; 0.05 to 0.5 µM in assay [5]; 0.05 to 0.5 µM in assay [6]. Moreover, the MTAP intact/deleted ratio result in assay [1] is listed as “A (an IC50 ratio greater than or equal to 10 fold)”.

`C[C@H]1CC[C@H](c2ccc(C(N)=O)s2)N(C(=O)C(=O)Nc2cncc(C(N)=O)c2)C1` (single isomer, unassigned) [Compound 796]: the IC50 in assay [1] was above 1 µM; in assay [2], above 0.5 µM; in assay [3], above 10 µM; in assay [4], above 1 µM; in assay [5], above 0.5 µM; in assay [6], above 0.5 µM. Further, in assay [1], the MTAP intact/deleted ratio entry was “C (an IC50 ratio of less than 3 fold)”.

With `COc1ncc(NC(=O)C(=O)N2C[C@@H](C)CC[C@@H]2c2ccc3sc(C)nc3c2)cc1C(N)=O` (single isomer, unassigned) [Compound 797], the IC50 is below 0.1 µM in assay [1]; below 0.05 µM in assay [2]; below 1 µM in assay [3]; above 1 µM in assay [4]; below 0.05 µM in assay [5]; 0.05 to 0.5 µM in assay [6]. Also, the MTAP intact/deleted ratio result in assay [1] is listed as “A (an IC50 ratio greater than or equal to 10 fold)”.

With `C[C@]1(F)CC[C@@H](c2ccccc2)N(C(=O)C(=O)Nc2cncc(C(N)=O)c2)C1` (single isomer, unassigned) [Compound 798, 5-(2-(5-fluoro-5-methyl-2-phenylpiperidin-1-yl)-2-oxoacetamido)nicotinamide], the IC50 in assay [1] was above 1 µM; in assay [2], above 0.5 µM; in assay [3], above 10 µM; in assay [4] it was above 1 µM; in assay [5], above 0.5 µM; in assay [6] it was above 0.5 µM. The MTAP intact/deleted ratio result in assay [1] was “C (an IC50 ratio of less than 3 fold)”.

On to `COc1ncc(NC(=O)C(=O)N2C[C@H](C)CC[C@H]2c2ccc(-c3nccs3)cc2)cc1C(N)=O` (single isomer, unassigned) [Compound 799], for which the IC50 in assay [1] is above 1 µM; in assay [2], above 0.5 µM; in assay [3] it was above 10 µM; in assay [4] it was above 1 µM; in assay [5], above 0.5 µM; in assay [6], above 0.5 µM. Besides, the MTAP intact/deleted ratio entry in assay [1] is “C (an IC50 ratio of less than 3 fold)”.

The record behind these values is US11999727B2 (Tango Therapeutics, Inc., priority 2020, dated 2024).
